Measurements from patent US9289411B2, “Anti-HCV agent” (NATIONAL UNIVERSITY CORPORATION OKAYAMA UNIVERSITY, priority 2011, dated 2016).

What was measured:
[1] = tested on: HCV-RNA replication in 1B-4R cells (HCV-1B-4 strain, HuH-7-derived); test: microbe, parasite or virus in culture; type: cell-based, HCV genotype 1b; settings: for EC50: Hepatitis C virus, 72 hours, renilla luciferase activity
Description: (§1) Assay systems using OR6 cells (HCV-O strain), 1B-4R cells (HCV-1B-4 strain), and AH1R cells (HCV-AH1R strain) as HuH-7 cell-derived full-length HCV-RNA-replicating cells, and ORL8 cells (HCV-O strain), ORL11 cells (HCV-O strain), 1B-4RL cells (HCV-1B-4 strain), and KAH5RL cells (HCV-KAH5 strain) as Li23 cell-derived full-length HCV-RNA-replicating cells were used for the quantitative analysis of anti-HCV activity and evaluation of a cytotoxic effect in the present invention. […] In addition, all the HCV strains belong to genotype 1b.

[2] = tested on: HCV-RNA replication in ORL8 cells; test: Combination effect with existing anti-HCV agents in ORL8 cells (luciferase activity vs expected additive curve); type: cell-based, HCV genotype 1b; settings: for effect in combination with CsA: CsA 0.2, 0.3, 0.4 μM; for effect in combination with CsA / effect in combination with FLV / effect in combination with RBV: compound 0.1, 0.2, 0.4 μM; for effect in combination with FLV: FLV 0.3, 1.0, 3.0 μM; for effect in combination with RBV: RBV 12.5, 25, 50 μM
Procedure: The effect of N-89 in combination with RBV was examined using ORL8 cells.
The drugs RBV and N-89 were added so that the concentrations of RBV were set to 0, 12.5, 25, and 50 μM and the concentrations of N-89 were set to 0, 0.1, 0.2, and 0.4 μM at each concentration of RBV. The luciferase activity was measured 72 hours after the culture.
The upper left panel of FIG. 19 and the upper right panel of FIG. 19 show the logarithmic and linear plots expressed by % of the measurement results, respectively.
The effect of N-251 in combination with RBV was examined using ORL8 cells.
The effect of N-89 in combination with IFN-α and RBV was examined using ORL8 cells.
The drugs N-89, IFN-α, and RBV were added so that the concentrations of the two drugs IFN-α and RBV were fixed as follows: both of IFN-α and RBV at 0; IFN-α at 1 IU/mL and RBV at 6.25 μM; IFN-α at 4 IU/mL and RBV at 12.5 μM; and IFN-α at 16 IU/mL and RBV at 25 μM, and the concentrations of N-89 were set to 0, 0.1, 0.2, and 0.4 μM in the respective combinations of IFN-α and RBV. The luciferase activity was measured 72 hours after the culture.
The luciferase activity was measured 72 hours after the culture.
The effect of N-89 in combination with FLV was examined using ORL8 cells.
The drugs FLV and N-89 were added so that the concentrations of FLV were set to 0.3, 1.0, and 3.0 μM and the concentrations of N-89 were set to 0, 0.1, 0.2, and 0.4 μM at each concentration of FLV. The luciferase activity was measured 72 hours after the culture.
The effect of N-251 in combination with FLV was examined using ORL8 cells.
The drugs FLV and N-251 were added so that the concentrations of FLV were set to 0.3, 1.0, and 3.0 μM and the concentrations of N-251 were set to 0, 0.1, 0.2, and 0.4 μM at each concentration of FLV. The luciferase activity was measured 72 hours after the culture.

[3] = tested on: HCV core protein in HCV-O/RLGE cells; test: Western blot analysis of HCV core protein in HCV-O/RLGE cells; type: cell-based; settings: 72 hours, concentration region in which β-actin did not reduce
Procedure: HCV-O/RLGE cells (Ikeda et al., Liver Int 31:871-880, 2011) were plated onto a 6-well plate (5×10^4 cells in 3 mL of medium for HuH-7 cell line per well) and cultured. […] 72 hours after the culture, the cells were lysed with 100 μL of 2×SDS buffer to prepare a sample for Western blot analysis. The Western blot analysis using an antibody against an HCV core protein (CP11; Institute of Immunology, Tokyo) was performed according to a conventional method. β-Actin was detected with an anti-β-actin antibody (AC-15; Sigma-Aldrich) in a sample diluted 10-fold with 2×SDS buffer.

[4] = tested on: HCV-RNA replication in ORL8 cells (HCV-O strain, Li23-derived); test: microbe, parasite or virus in culture; settings: for EC50: Hepatitis C virus, ORL8, 72 h; for SI (CC50/EC50) / suppression of the level of HCV-RNA replication: ORL8 cells; for suppression of the level of HCV-RNA replication: 1 μM
Description: Assay systems using OR6 cells (HCV-O strain), 1B-4R cells (HCV-1B-4 strain), and AH1R cells (HCV-AH1R strain) as HuH-7 cell-derived full-length HCV-RNA-replicating cells, and ORL8 cells (HCV-O strain), ORL11 cells (HCV-O strain), 1B-4RL cells (HCV-1B-4 strain), and KAH5RL cells (HCV-KAH5 strain) as Li23 cell-derived full-length HCV-RNA-replicating cells were used for the quantitative analysis of anti-HCV activity and evaluation of a cytotoxic effect in the present invention. The three cell lines, i.e., the 1B-4R cells, the 1B-4RL cells, and the KAH5RL cells have been disclosed in WO 2010/026965 A1. The AH1R cells may be produced with reference to Mori K et al., BBRC, 371:104-109, 2008 and WO 2010/026965 A1. In addition, all the HCV strains belong to genotype 1b.
As necessary, an increase or decrease in expression level of an HCV protein (core protein) was examined by a Western blot method.
In the measurement of the renilla luciferase activity and the measurement by the WST-1 method, experiments were performed in three wells independent of each other, and their means and standard deviation were calculated.
The anti-HCV activities of N-89 and N-251 were examined using ORL8 cells and the EC50 values were calculated. An experimental scale and schedule are the same as those in Example 1.
N-89 and N-251 were added so as to achieve concentrations of 5 μM, a 2-fold dilution series from 5 μM (2.5, 1.3, 0.63, 0.31, 0.16, and 0.08 μM), and 0. The luciferase activities were measured 72 hours after the culture.
The anti-HCV activity of artemisinin was examined using OR6 cells and ORL8 cells and the EC50 values were calculated. An experimental scale and schedule are the same as those in Example 1.
Artemisinin was added so as to achieve concentrations of 100 μM, a 2-fold dilution series from 100 μM (50, 25, 13, 6.3, 3.1, and 1.6 μM), and 0. The luciferase activities were measured 72 hours after the culture.

[5] = tested on: HCV-RNA replication in OR6, 1B-4R, AH1R, ORL8, ORL11, 1B-4RL and KAH5RL cells; test: Anti-HCV activity summarized over cells derived from various HCV strains (reporter assays); type: cell-based, HCV genotype 1b; settings: Hepatitis C virus, seven full-length HCV-RNA-replicating cell lines, read-out: EC50 values, range over all cells
[6] = Cytotoxic effect summarized over cells derived from various HCV strains (WST-1); type: cell-based; settings: human; seven full-length HCV-RNA-replicating cell lines; read-out: CC50 values, range over all cells
Description: as §1

renilla luciferase = test: Influence on renilla luciferase activity in lysate of ORL8 cells; type: biochemical; settings: ORL8 cell lysate, concentrations of up to 20 μM
Procedure: In the ORL8 cells, the anti-HCV activity is evaluated by measuring the activity of renilla luciferase as a product of an exogenous gene introduced so as to be linked to HCV RNA.
Thus, N-89 or N-251 was added (5 μL) to a lysate (10 μL) of the ORL8 cells (1×10^5 cells, medium for Li23 cell line) so as to achieve final concentrations of 0, 5, 10, and 20 μM, and 50 μL of a substrate were further added thereto. Then, the luciferase activity was measured.
An actual luciferase activity value (RL activity value) at 100% on the ordinate axis was 2.2×10^5 in the case of N-89 and 2.8×10^5 in the case of N-251.

## C1CCCCCC2(CCCCC1)OOCCCOO2 [N-89, 1,2,6,7-tetraoxaspiro[7,11]nonadecane]
[1]
  SI (CC50/EC50): 22
  EC50: 420 nM
[2]; 72 hours
  effect in combination with CsA: synergistic effect
  effect in combination with FLV: synergistic effect
  effect in combination with RBV: synergistic effect
[2]; IFN-α 1 IU/mL and RBV 6.25 μM, N-89 0.1-0.4 μM
  gaps between actually measured values and values expected as an additive effect: little gaps
[2]; IFN-α 4 IU/mL + RBV 12.5 μM and IFN-α 16 IU/mL + RBV 25 μM, N-89 0.1-0.4 μM, 72 hours
  effect in combination with IFN-α and RBV: synergistic effect
[3]
  amount of HCV core protein (Western blot): clearly reduced
[4]
  EC50: 89 nM
  SI (CC50/EC50): 26
  suppression of the level of HCV-RNA replication: 99%
[5]
  EC50: 25 to 660 nM
[6]
  CC50: 500 to 9300 nM
Renilla luciferase
  inhibition on the renilla luciferase activity: did not show any inhibition

## OCCCCCCC1COOC2(CCCCCCCCCCC2)OOC1 [N-251, 6-(1,2,6,7-tetraoxaspiro[7,11]nonadec-4-yl)]
[1]
  SI (CC50/EC50): 3.9
  EC50: 980 nM
[2]; 72 hours
  effect in combination with CsA: synergistic effect
  effect in combination with FLV: synergistic effect
  effect in combination with RBV: synergistic effect
[3]
  amount of HCV core protein (Western blot): clearly reduced
[4]
  EC50: 100 nM
  SI (CC50/EC50): 13
  suppression of the level of HCV-RNA replication: 99%
[5]
  EC50: 59 to 980 nM
[6]
  CC50: 490 to 3800 nM
Renilla luciferase
  inhibition on the renilla luciferase activity: did not show any inhibition
